Source: patent publication US20230002320A1, “COMPOUNDS AND COMPOSITIONS FOR TREATING CONDITIONS ASSOCIATED WITH STING ACTIVITY” (IFM Due, Inc., priority 2019, published 2023)
pEC50: −log10 of the molar value.

Each molecule was assayed against hSTING (Homo sapiens, UniProt Q86WV6) (assay: STING reporter assay (luciferase) in THP1-Dual KO-IFNAR2 cells activated with 2'3' cGAMP). Conditions: 15 μM 2'3' cGAMP, 24 h.
Type: cell-based
Procedure: STING pathway activation by the compounds described herein was measured using THP1-Dual™ cells (KO-IFNAR2).
THP1-Dual™ KO-IFNAR2 Cells (obtained from invivogen) were maintained in RPMI, 10% FCS, 5 ml P/S, 2 mM L-glut, 10 mM Hepes, and 1 mM sodium pyruvate. Compounds were spotted in empty 384 well tissue culture plates (Greiner 781182) by Echo for a final concentration of 0.0017-100 μM. Cells were plated into the TC plates at 40 μL per well, 2×10E6 cells/mL. For activation with STING ligand, 2′3′ cGAMP (MW 718.38, obtained from Invivogen), was prepared in Optimem media.
The following solutions were prepared for each 1×384 plate: • Solution A: 2 mL Optimem with one of the following stimuli: • 60 uL of 10 mM 2′3′ cGAMP ->150 μM stock • Solution B: 2 mL Optimem with 60 μL Lipofectamine 2000->Incubate 5 min at RT
2 mL of solution A and 2 ml Solution B was mixed and incubated for 20 min at room temperature (RT). 20 uL of transfection solution (A+B) was added on top of the plated cells, with a final 2′3′ cGAMP concentration of 15 μM. The plates were then centrifuged immediately at 340 g for 1 minute, after which they were incubated at 37° C., 5% CO2, >98% humidity for 24 h. Luciferase reporter activity was then measured. EC50 values were calculated by using standard methods known in the art.
(§1) Luciferase reporter assay: 10 μL of supernatant from the assay was transferred to white 384-plate with flat bottom and squared wells. one pouch of QUANTI-Luc™ Plus was dissolved in 25 mL of water. 100 μL of QLC Stabilizer per 25 mL of QUANTI-Luc™ Plus solution was added. 50 μL of QUANTI-Luc™ Plus/QLC solution per well was then added. Luminescence was measured on a Platereader (e.g., Spectramax I3X (Molecular Devices GF3637001)).
Luciferase reporter activity was then measured. EC50 values were calculated by using standard methods known in the art.
as §1, with “squared wells,” for “squared wells.”, “Luminescence is” for “Luminescence was”

Chain of hSTING (Q86WV6 whole entry R71H/G230A/H232R/R293Q, form open): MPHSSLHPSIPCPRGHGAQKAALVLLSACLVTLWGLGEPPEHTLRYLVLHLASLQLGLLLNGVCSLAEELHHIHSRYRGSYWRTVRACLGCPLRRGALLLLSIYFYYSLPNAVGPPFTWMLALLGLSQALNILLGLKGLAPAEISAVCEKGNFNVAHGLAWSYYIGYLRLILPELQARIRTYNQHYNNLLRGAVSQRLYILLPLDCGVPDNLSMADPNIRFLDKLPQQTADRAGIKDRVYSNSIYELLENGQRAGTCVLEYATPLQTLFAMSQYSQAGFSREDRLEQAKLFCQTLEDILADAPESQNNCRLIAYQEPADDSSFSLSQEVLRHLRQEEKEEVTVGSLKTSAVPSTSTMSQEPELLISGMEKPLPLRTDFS

Row | SMILES | pEC50
1 | O=C(Nc1ccc(C(F)(F)F)cc1)Nc1c[nH]c2ccc(-c3c(F)cccc3F)cc12 [Compound 222] | 5.30 to 6.00
2 | Cn1ccc(-c2ccc3[nH]cc(NC(=O)Nc4ccc(C(F)(F)F)cc4)c3c2)n1 [Compound 214, 1-(5-(1-methyl-1H-pyrazol-3-yl)-1H-indol-3-yl)-3-(4-(trifluoromethyl)phenyl)urea] | 5.30 to 6.00
3 | O=C(Nc1ccc(C(F)(F)F)cc1)Nc1c[nH]c2ccc(-c3cccc4cccnc34)cc12 [Compound 224, 1-(5-(quinolin-8-yl)-1H-indol-3-yl)-3-(4-(trifluoromethyl)phenyl)urea] | 5.30 to 6.00
4 | CC(C)(C)Oc1ccc(-c2ccc3[nH]cc(NC(=O)Nc4ccc(C(F)(F)F)cc4)c3c2)cc1 [Compound 288, 1-(5-(4-(tert-butoxy)phenyl)-1H-indol-3-yl)-3-(4-(trifluoromethyl)phenyl)urea] | 6.00 to 6.70
5 | CCCc1ccc(-c2ccc3[nH]cc(NC(=O)Nc4ccc(C(F)(F)F)cc4)c3c2)cc1 [Compound 238] | 5.30 to 6.00
6 | Nc1cc(-c2ccc3[nH]cc(NC(=O)Nc4ccc(C(F)(F)F)cc4)c3c2)ccn1 [Compound 274, 1-(5-(2-aminopyridin-4-yl)-1H-indol-3-yl)-3-(4-(trifluoromethyl)phenyl)urea] | 5.30 to 6.00
7 | O=C(Nc1ccc(C(F)(F)F)cc1)Nc1c[nH]c2ccc(-c3ccc(F)cc3F)cc12 [Compound 242] | 5.30 to 6.00
8 | CC(C)(C#N)c1ccc(-c2ccc3[nH]cc(NC(=O)Nc4ccc(C(F)(F)F)cc4)c3c2)cc1 [Compound 217] | 4.00 to 5.30
9 | O=C(Nc1ccc(C(F)(F)F)cc1)Nc1c[nH]c2ccc(-c3ccc(F)c(F)c3)cc12 [Compound 241] | 5.30 to 6.00
10 | COCc1cncc(-c2ccc3[nH]cc(NC(=O)Nc4ccc(C(F)(F)F)cc4)c3c2)c1 [Compound 228] | 6.00 to 6.70
11 | O=C(Nc1ccc(C(F)(F)F)cc1)Nc1c[nH]c2ccc(-c3ccc(CO)c(F)c3)cc12 [Compound 127, 1-(5-(3-fluoro-4-(hydroxymethyl)phenyl)-1H-indol-3-yl)-3-(4-(trifluoromethyl)phenyl)urea] | 6.00 to 6.70
12 | O=C(Nc1ccc(C(F)(F)F)cc1)Nc1c[nH]c2ccc(-c3ccc(CO)cc3)cc12 [Compound 282, 1-(5-(4-(hydroxymethyl)phenyl)-1H-indol-3-yl)-3-(4-(trifluoromethyl)phenyl)urea] | 5.30 to 6.00
13 | CC(C)(O)Cn1cc(-c2ccc3[nH]cc(NC(=O)Nc4ccc(C(F)(F)F)cc4)c3c2)cn1 [Compound 297, 1-(5-(1-(2-hydroxy-2-methylpropyl)-1H-pyrazol-4-yl)-1H-indol-3-yl)-3-(4-(trifluoromethyl)phenyl)urea] | 6.00 to 6.70
14 | O=C(Nc1ccc(C(F)(F)F)cc1)Nc1c[nH]c2ccc(-c3cc(F)cc(F)c3)cc12 [Compound 240] | 6.00 to 6.70
15 | O=C(Nc1ccc(C(F)(F)F)cc1)Nc1c[nH]c2ccc(-c3cncc(Cl)c3)cc12 [Compound 229] | 6.00 to 6.70
16 | O=C(Nc1ccc(C(F)(F)F)cc1)Nc1c[nH]c2ccc(-c3ccc(Cl)c(Cl)c3)cc12 [Compound 239] | 5.30 to 6.00
17 | O=C(Nc1ccc(C(F)(F)F)cc1)Nc1c[nH]c2ccc(-c3cc(Cl)nc(Cl)c3)cc12 [Compound 227] | 6.00 to 6.70
18 | CN(C)C(=O)c1ccc(-c2ccc3[nH]cc(NC(=O)Nc4ccc(C(F)(F)F)cc4)c3c2)c(F)c1 [Compound 215] | 6.00 to 6.70

Other lines, results leading:

Row | pEC50 | SMILES
19 | 6.00 to 6.70 | O=C(Nc1ccc(C(F)(F)F)cc1)Nc1c[nH]c2ccc(-c3cccc(Cl)c3)cc12 [Compound 226]
20 | 6.00 to 6.70 | CN(C)C(=O)c1ccc(-c2ccc3[nH]cc(NC(=O)Nc4ccc(C(F)(F)F)cc4)c3c2)cc1 [Compound 219]
21 | 6.00 to 6.70 | CC(C)n1cc(-c2cc3c(NC(=O)Nc4ccc(C(F)(F)F)cc4)c[nH]c3cc2F)cn1 [Compound 213]
22 | 6.00 to 6.70 | CC(=O)c1ccc(-c2ccc3[nH]cc(NC(=O)Nc4ccc(C(F)(F)F)cc4)c3c2)s1 [Compound 231]
23 | 6.00 to 6.70 | O=C(Nc1ccc(C(F)(F)F)cc1)Nc1c[nH]c2ccc(-c3cccc(OC(F)(F)F)c3)cc12 [Compound 220]
24 | 6.00 to 6.70 | O=C(Nc1ccc(C(F)(F)F)cc1)Nc1c[nH]c2ccc(-c3ccc(OC(F)F)cc3)cc12 [Compound 218]
25 | 6.70 to 7.40 | O=C(Nc1ccc(C(F)(F)F)cc1)Nc1c[nH]c2cc(F)c(-c3cnn(C(F)F)c3)cc12 [Compound 212, 1-(5-(1-(difluoromethyl)-1H-pyrazol-4-yl)-6-fluoro-1H-indol-3-yl)-3-(4-(trifluoromethyl)phenyl)urea]
26 | 6.70 to 7.40 | CCn1cc(-c2ccc3[nH]cc(NC(=O)Nc4ccc(C(F)(F)F)cc4)c3c2)cn1 [Compound 237]
27 | 6.70 to 7.40 | O=C(Nc1ccc(C(F)(F)F)cc1)Nc1c[nH]c2ccc(-c3cnn(CC4CC4)c3)cc12 [Compound 235]
28 | 6.00 to 6.70 | COCCn1cc(-c2ccc3[nH]cc(NC(=O)Nc4ccc(C(F)(F)F)cc4)c3c2)cn1 [Compound 236]
29 | 6.00 to 6.70 | CC(C)c1ccc(-c2ccc3[nH]cc(NC(=O)Nc4ccc(C(F)(F)F)cc4)c3c2)cc1 [Compound 223, 1-(5-(4-isopropylphenyl)-1H-indol-3-yl)-3-(4-(trifluoromethyl)phenyl)urea]
30 | 6.00 to 6.70 | O=C(Nc1ccc(C(F)(F)F)cc1)Nc1c[nH]c2ccc(-c3ccccc3)cc12 [Compound 101, 1-(5-phenyl-1H-indol-3-yl)-3-(4-(trifluoromethyl)phenyl)urea]
31 | 6.00 to 6.70 | O=C(Nc1ccc(C(F)(F)F)cc1)Nc1c[nH]c2ccc(-c3cccc4ncccc34)cc12 [Compound 221, 1-(5-(quinolin-5-yl)-1H-indol-3-yl)-3-(4-(trifluoromethyl)phenyl)urea]
32 | 6.70 to 7.40 | CC(C)n1cc(-c2ccc3[nH]cc(NC(=O)Nc4ccc(C(F)(F)F)cc4)c3c2)cn1 [Compound 104, 1-(5-(1-isopropyl-1H-pyrazol-4-yl)-1H-indol-3-yl)-3-(4-(trifluoromethyl)phenyl)urea]
33 | 6.00 to 6.70 | CC(C)n1cc(-c2ccc3[nH]cc(NC(=O)Nc4ccc(C5CCCCC5)nc4)c3c2)cn1 [Compound 243]
34 | 6.70 to 7.40 | N#Cc1csc(-c2ccc3[nH]cc(NC(=O)Nc4ccc(C(F)(F)F)cc4)c3c2)c1 [Compound 216]
35 | 6.00 to 6.70 | CCCCCCc1ccc(-c2ccc3[nH]cc(NC(=O)Nc4ccc(C(F)(F)F)cc4)c3c2)cc1 [Compound 211, 1-(5-(4-hexylphenyl)-1H-indol-3-yl)-3-(4-(trifluoromethyl)phenyl)urea]
36 | 6.00 to 6.70 | O=C(Nc1ccc(C(F)(F)F)cc1)Nc1c[nH]c2ccc(-c3cccnc3)cc12 [Compound 230]
37 | 6.00 to 6.70 | N#CCCn1cc(-c2ccc3[nH]cc(NC(=O)Nc4ccc(C(F)(F)F)cc4)c3c2)cn1 [Compound 232]
38 | 6.00 to 6.70 | COc1cccc(-c2ccc3[nH]cc(NC(=O)Nc4ccc(C(F)(F)F)cc4)c3c2)c1 [Compound 225]
39 | 6.70 to 7.40 | O=C(Nc1ccc(C(F)(F)F)cc1)Nc1c[nH]c2ccc(-c3cnn(-c4ccccc4)c3)cc12 [Compound 234]
